For assay [1], the target named is T1, PPAR-γ receptor (Homo sapiens, UniProt P37231).
T1 sequence (P37231 238-505 limits assumed): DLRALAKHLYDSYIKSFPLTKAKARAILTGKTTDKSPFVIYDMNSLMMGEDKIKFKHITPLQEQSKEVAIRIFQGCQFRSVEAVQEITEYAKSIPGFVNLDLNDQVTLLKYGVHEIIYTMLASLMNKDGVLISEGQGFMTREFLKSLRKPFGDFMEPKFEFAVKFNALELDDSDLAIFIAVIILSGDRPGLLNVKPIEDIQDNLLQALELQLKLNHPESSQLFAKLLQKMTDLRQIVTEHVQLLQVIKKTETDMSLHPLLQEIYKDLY
The assay can be described thus: cell-based. The text has this:
FIG. 14: Activity of a number of compounds of the invention at the PPAR-γ receptor in cell based system (GeneBlazer) versus rosglitazone control.

Assay [2] concerns the target T2, PPAR-γ receptor (Homo sapiens, UniProt P37231).
T2 sequence (P37231 1-505): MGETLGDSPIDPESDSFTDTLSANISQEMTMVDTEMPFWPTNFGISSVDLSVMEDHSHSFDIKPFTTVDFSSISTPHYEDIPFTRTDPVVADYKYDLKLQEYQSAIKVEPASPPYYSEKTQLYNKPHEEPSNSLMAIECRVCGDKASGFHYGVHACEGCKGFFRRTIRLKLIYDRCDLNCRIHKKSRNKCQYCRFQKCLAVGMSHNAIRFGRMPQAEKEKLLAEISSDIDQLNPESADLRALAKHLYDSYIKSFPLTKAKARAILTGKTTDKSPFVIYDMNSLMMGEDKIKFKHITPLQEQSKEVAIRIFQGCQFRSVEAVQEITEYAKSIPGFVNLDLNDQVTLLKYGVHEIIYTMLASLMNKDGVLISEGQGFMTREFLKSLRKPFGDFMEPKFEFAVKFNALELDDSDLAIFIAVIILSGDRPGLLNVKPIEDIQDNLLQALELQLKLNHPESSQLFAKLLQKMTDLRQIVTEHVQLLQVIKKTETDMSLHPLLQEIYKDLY
Nature of the assay: biochemical. Type of assay: biochemical.

Each structure is given as a SMILES string.

Three compounds from patent US20110039808A1, “Multitarget Compounds Active at a PPAR and Cannabinoid Receptor” (priority 2007, published 2011) can be followed below.

In the case of `Cc1c(C(=O)c2cccc3ccccc23)c2ccccc2n1CCNc1ccc(C(=O)O)c(O)c1` [DWIN1 (IX), 2-Hydroxy-4-{2-[2-methyl-3-(naphthalene-1-carbonyl)-indol-yl]-ethylamino}-benzoic acid], the concentration giving a half-maximal response (EC50) (commonly the concentration at which the effect is half-maximal) was 800 nM at PPAR-γ receptor [1] and 493 nM on PPAR-γ receptor [2]. `Cc1c(C(=O)c2cccc3ccccc23)c2ccccc2n1CCNc1ccc(O)c(C(=O)O)c1` [DWIN2 (X), 2-Hydroxy-5-{2-[2-methyl-3-(naphthalene-1-carbonyl)-indol-1-yl]-ethylamino}-benzoic acid]: the results for the EC50 on PPAR-γ receptor [1] and on PPAR-γ receptor [2] were 1050 nM and 358 nM, respectively. On to `Cc1c(CCNc2ccc(C(=O)O)c(O)c2)c2ccccc2n1C(=O)c1cccc(Cl)c1Cl` [DWIN8 (XII), 4-{2-[1-(2,3-Dichloro-benzoyl)-2-methyl-1H-indol-3-yl]-ethylamino}-2-hydroxy-benzoic acid], for which, at PPAR-γ receptor [2] (initial dose-response curves, statement follows the PPAR-γ cell free table), the “activity in initial dose-response curves” value is “not active”.
